Experimental data taken from patent US20110209253A1, “Method for Improving Plant Health” (BASF SE, priority 2008, published 2011).
Where two headings read alike, the source gives them in different places.

System: Wheat plants (Triticum aestivum cv. Monopol)
Test: Growth-promoting effect on wheat plants after foliar treatment (Example 3)
Assay type: in vivo
Details: after 18 days; for activity at 7.5 g/ha / activity at 15 g/ha: Triticum aestivum, 432 h
Description: Wheat plants (Triticum aestivum cv. Monopol) were grown in soil with ten plants per pot (13 cm diameter) under greenhouse conditions. Plants at the 2nd leaf stage were sprayed with aqueous solutions of formulated compounds: • Compound 2: 5-Methyl-2-trifluoromethyl-furan-3-carboxylic acid (1-methylcarbamoyl-2-phenyl-ethyl)-amide • Compound 3: 1-Methyl-3-trifluoromethyl-1H-pyrazole-4-carboxylic acid (1-methylcarbamoyl-2-phenyl-ethyl)-amide • Compound 4: Methyl-carbamic acid-2-methylcarbamoyl-2-[(1-methyl-3-trifluoromethyl-1H-pyrazole-4-carbonyl)-amino]-ethyl ester • Compound 5: Methyl-carbamic acid-2-methylcarbamoyl-2-[(1-methyl-3-trifluoromethyl-1H-pyrazole-4-carbonyl)-amino]-1-(tetrahydro-pyran-4-yl)-ethyl ester • Compound 6: Methyl-carbamic acid 1,1-dimethyl-2-methylcarbamoyl-2-[(1-methyl-3-trifluoromethyl-1H-pyrazole-4-carbonyl)-amino]-ethyl ester • Compound 7: 1-Methyl-3-trifluoromethyl-1H-pyrazole-4-carboxylic acid (2-hydroxy-3-methoxy-2-methoxymethyl-1-methylcarbamoyl-propyl)-amide • Compound 8: Methyl-carbamic acid 1,1-bis-methoxymethyl-2-methylcarbamoyl-2-[(1-methyl-3-trifluoromethyl-1H-pyrazole-4-carbonyl)-amino]-ethyl ester • Compound 9: Methyl-carbamic acid (E)-1-methyl-1-{methylcarbamoyl-[(1-methyl-3-trifluoromethyl-1H-pyrazole-4-carbonyl)-amino]-methyl}-but-2-enyl ester The compounds were applied at two different dose rates (15 and 7.5 g ai/ha) and the spray volume was 750 I/ha. Six replicate pots with ten plants each were used per treatment. After 18 days plants were harvested and growth parameters were determined. The recorded parameters were fresh weight (FW) and dry weight (DW). Mean values of results, standard deviation (SD) and percentage to control were calculated.

[1] = 7.5 g/ha foliar spray, read-out: Shoot DW % of control
[2] = 7.5 g/ha foliar spray, read-out: Shoot FW % of control
[3] = 15 g/ha foliar spray, read-out: Shoot DW % of control
[4] = 15 g/ha foliar spray, read-out: Shoot FW % of control

| SMILES | Shoot DW (7.5 g/ha foliar spray) [g] | Shoot FW (7.5 g/ha foliar spray) [g] | Shoot DW (15 g/ha foliar spray) [g] | Shoot FW (15 g/ha foliar spray) [g] | activity at 7.5 g/ha [1] [%] | activity at 7.5 g/ha [2] [%] | activity at 15 g/ha [3] [%] | activity at 15 g/ha [4] [%] |
| --- | --- | --- | --- | --- | --- | --- | --- | --- |
| CNC(=O)C(Cc1ccccc1)NC(=O)c1cc(C)oc1C(F)(F)F (stereo not shown) [Compound 2, 5-Methyl-2-trifluoromethyl-furan-3-carboxylic acid (1-methylcarbamoyl-2-phenyl-ethyl)-amide] | 3.8 | 40.9 | 3.7 | 38.7 | 135 | 134 | 131 | 126 |
| CNC(=O)C(Cc1ccccc1)NC(=O)c1cn(C)nc1C(F)(F)F (stereo not shown) [Compound 3, 1-Methyl-3-trifluoromethyl-1H-pyrazole-4-carboxylic acid (1-methylcarbamoyl-2-phenyl-ethyl)-amide] | 3.8 | 39.4 | 3.8 | 39.1 | 135 | 129 | 135 | 128 |
| CNC(=O)OCC(NC(=O)c1cn(C)nc1C(F)(F)F)C(=O)NC (stereo not shown) [Compound 4, Methyl-carbamic acid-2-methylcarbamoyl-2-[(1-methyl-3-trifluoromethyl-1H-pyrazole-4-carbonyl)-amino]-ethyl ester] | 3.7 | 37.7 | 3.8 | 40.1 | 131 | 123 | 137 | 131 |
| CNC(=O)OC(C1CCOCC1)C(NC(=O)c1cn(C)nc1C(F)(F)F)C(=O)NC (stereo not shown) [Compound 5, Methyl-carbamic acid 2-methylcarbamoyl-2-[(1-methyl-3-trifluoromethyl-1H-pyrazole-4-carbonyl)-amino]-1-(tetrahydro-pyran-4-yl)-ethyl ester] | 3.8 | 41.2 | 3.7 | 39.6 | 135 | 135 | 133 | 129 |
| CNC(=O)OC(C)(C)C(NC(=O)c1cn(C)nc1C(F)(F)F)C(=O)NC (stereo not shown) [Compound 6, Methyl-carbamic acid 1,1-dimethyl-2-methylcarbamoyl-2-[(1-methyl-3-trifluoromethyl-1H-pyrazole-4-carbonyl)-amino]-ethyl ester] | 3.7 | 39.2 | 3.6 | 38.2 | 132 | 128 | 130 | 125 |
| CNC(=O)C(NC(=O)c1cn(C)nc1C(F)(F)F)C(O)(COC)COC (stereo not shown) [Compound 7, 1-Methyl-3-trifluoromethyl-1H-pyrazole-4-carboxylic acid (2-hydroxy-3-methoxy-2-methoxymethyl-1-methylcarbamoyl-propyl)-amide] | 3.7 | 38.7 | 3.7 | 40.2 | 131 | 126 | 133 | 131 |
| CNC(=O)OC(COC)(COC)C(NC(=O)c1cn(C)nc1C(F)(F)F)C(=O)NC (stereo not shown) [Compound 8, Methyl-carbamic acid 1,1-bis-methoxymethyl-2-methylcarbamoyl-2-[(1-methyl-3-trifluoromethyl-1H-pyrazole-4-carbonyl)-amino]-ethyl ester] | 3.9 | 39.6 | 3.7 | 39.4 | 138 | 129 | 131 | 121 |
| C/C=C/C(C)(OC(=O)NC)C(NC(=O)c1cn(C)nc1C(F)(F)F)C(=O)NC (stereo not shown) [Compound 9, Methyl-carbamic acid (E)-1-methyl-1-{methylcarbamoyl-[(1-methyl-3-trifluoromethyl-1H-pyrazole-4-carbonyl)-amino]-methyl}-but-2-enyl ester] | 3.6 | 38.8 | 3.8 | 39.4 | 129 | 127 | 135 | 129 |
